The results in this text go back to US11872262B2, “Means and methods for treating bacterial infections” (VIB VZW, priority 2017, dated 2024).

Common to all, as to type: cell-based
The subject of one test is Pseudomonas aeruginosa. The procedure: (§1) Gram negative bacterial strains were cultivated in Luria-Bertani (LB) broth (Difco) and gram positive bacteria strains were grown in a rich medium, brain heart infusion (BHI) broth (Difco, Sparks, MD) at 37° C. Whenever required, growth media were supplemented with appropriate antibiotic to the medium or plates. Escherichia coli DH5α was used for cloning and plasmid amplification. […] Bacterial CFU counting was done on blood agar plates (BD Biosciences). Species identification and antibiograms for all clinical isolates were performed using MALDI-TOF and VITEK® 2 automated system (bioMérieux).
(§2) The MICs of active peptides were determined via the Broth microdilution assay according to the EUCAST guideline, which were performed in 96-well polystyrene flat-bottom microtiter plates (BD Biosciences). Briefly, a single colony was inoculated into 5 mL LB medium and grown to the end-exponential growth phase in a shaking incubator at 37° C. Cultures were subsequently diluted to an OD600 of 0.002 ([…]) in fresh LB medium. 100 μL of LB medium with different concentration of peptides ranging from 100 μg/mL to 1 μg/mL were serially diluted to the sterile 96-well plate (at least 3 wells in each plate). Afterward, 100 μL of the diluted bacteria were pipetted into 96-well plates containing different concentration of peptides. In each plate, the grown bacteria with maximum concentration of carrier and medium were considered as positive and negative controls, respectively. Thereafter, 96-well plates was statically incubated overnight at 37° C. to allow bacterial growth. A multipurpose UV/VIS plate reader at OD590 nm, 1 s shaking measured the absorbance of the growth bacteria using a Perkin Elmer spectrophotometer (1420 Multilabel Counter Victor 3).

The test system of test [1] is Klebsiella pneumoniae (ATCC 1388). The procedure:
as §1, §2

The subject of a further test is Proteus mirabilis. The procedure:
as §1, §2

Another test has as its system Neisseria. As for the experimental part: as §1, §2
The test system of test [2] is Acinetobacter radioresistens. As for the experimental part: as §1, §2
The test system of test [3] is Enterobacter cloacae LMG2783T. The procedure: as §1, §2
For another test, the system named is Acinetobacter baumanii. As for the experimental part: as §1, §2
Test [4] relates to Staphylococcus aureus MRSA326. The procedure: as §1, §2
For test [5], the system named is Staphylococcus epidermidis 12228. As for the experimental part:
as §1, §2

≈ marks a conversion by molar mass, not a printed value. Residues, ends and D or L forms follow the SMILES beside them.

The MIC is the lowest concentration found to suppress growth. Higher therefore signals a need for much substance. Turning to `CC(C)C[C@H](NC(=O)CNC(=O)[C@H](CCCNC(=N)N)NC(=O)[C@@H]1CCCN1C(=O)[C@H](CCCNC(=N)N)NC(=O)[C@H](CCCNC(=N)N)NC(=O)[C@@H](NC(=O)[C@H](CC(C)C)NC(=O)[C@H](C)NC(=O)[C@H](CC(C)C)NC(=O)CNC(=O)[C@H](CC(C)C)NC(=O)CNC(=O)[C@@H](N)CCCNC(=N)N)C(C)C)C(=O)NCC(=O)N[C@@H](CC(C)C)C(=O)N[C@@H](C)C(=O)N[C@@H](CC(C)C)C(=O)N[C@H](C(=O)N[C@@H](CCCNC(=N)N)C(=O)N[C@@H](CCCNC(=N)N)C(=O)O)C(C)C` [Peptide P2] (H-RGLGLALVRRPRGLGLALVRR-OH), the MIC against Pseudomonas aeruginosa was determined as 200 µg/mL (≈ 87 µM); in [1] it was 50 µg/mL (≈ 21.7 µM); in the test with Proteus mirabilis, 50 µg/mL (≈ 21.7 µM); in the test with Neisseria, 50 µg/mL (≈ 21.7 µM); in test [2] it was 5 µg/mL (≈ 2.17 µM); in test [3], 50 µg/mL (≈ 21.7 µM). Besides, the MIC stood at 6 µg/mL (≈ 2.61 µM) in the test with Acinetobacter baumanii, 200 µg/mL (≈ 87 µM) in test [4] and 50 µg/mL (≈ 21.7 µM) in test [5].
